# Assays:
# [1] = system: intracranial T4302 tumors; experiment: Orthotopic GBM model, survival and tumor burden; format: in vivo, Athymic nude mice
# Protocol: (A, B) T4302 CD133+ cells were treated with 100 nM GSI±FTI for 48 hours and lysed in RIPA buffer. Mice bearing intracranial T4302 tumors were orally treated with 30 mg/kg/day GSI once a day (q.d.)±100 mg/kg/day FTI twice a day (b.i.d.) for 7 days. Brains were resected and homogenized in RIPA buffer. All lysates were blotted with an antibody specific to prelamin A. (B) Additional brains were fixed and resected for IHC staining for cleaved Notch1. (C) T4302 CD133+ cells were infected with lentivirus expressing firefly luciferase and selected with puromycin for two days. Athymic nude mice were intracranially implanted with 5,000 cells, maintained for 10 days, and treated with GSI±FTI for 20 days as described above. In a separated experiment, animals were treated by the same protocol, except they were given 2 doses of 4 Gy X-ray irradiation on day 11 and day 12, 4 hours after drug administration. These mice were on drugs for 30 days. The median survival was calculated by the GraphPad Prism 5 software. (D) Animals in the unirradiated experiment were tracked for their tumor progression by bioluminescence imaging. The Y axis is set in a log scale. (E,F) The survival curves of these two experiments are shown.
# Mice were first anesthetized using an isoflurane inhalation system and maintained on the nose cone during the procedure. 5,000 CD 133+ GSC cells suspended in 10 μl PBS were implanted into the right cerebrum with 30 gauge needles. Animals were maintained for 10 days to allow tumor establishment. Before treatment, any mouse showing distress or neurological signs (e.g. lethargy, hemiparesis, ataxia, seizures) would be euthanized. The remaining mice will be randomized to treatment groups just prior to treatment. […]
# Mice were weighted and visually inspected daily once treatments begin. Tumor development was monitored by bioluminescence imaging every week. […] The primary readout of the in vivo tests is the median survival calculated by the Kaplan-Meier estimator using the GraphPad Prism5 software. Drug efficacy was also be assessed by tumor sizes estimated by bioluminescence imaging.
# Ras = experiment: Active Ras pull-down assay in T4302 CD133+ cells; format: cell-based, human; details: 200 nM; after radiation exposure
# Protocol: (A) T4302 CD133+ cells were infected with NICD2-lentivirus and treated with 2 μM DAPT±3 Gy radiation. Cells were collected at 24 or 48 hours after treatment. Protein levels of phospho-s473 Akt, total Akt and actin were blotted. (B) Control CD133+ cells or NICD2-expressing cells were pre-treated with 10 μM PI3K inhibitor (LY294002), or 50 μM Akt inhibitor (SH-6) for 4 hours prior to radiation. Relative caspase 3/7 activity was determined at 48 hours after radiation as described in FIG. 3C. (C) T4302 CD133+ cells were treated with 200 nM RO4929097 (GSI)±3 Gy. Active Ras levels were determined by a Ras Pull Down Assay kit using a pan-Ras antibody (Pierce). (D, E) T4302 cells were infected with H-Ras V12-lentivirus. Cells were treated with 200 nM RO4929097 (GSI)±3 Gy. Growth of cells was determined at day 5 after treatment (CellTiter-Glo assay, Promega). Relative caspase 3/7 activity was determined at 48 hours after treatment. […] Equal amounts of protein were resolved by SDS-PAGE and analyzed by immunoblotting with indicated antibodies. *: p<0.05 by Student's t-test.
# Potential mechanisms that mediate Notch-dependent Akt activation were examined next. […] Using an active Ras pull-down assay kit (Pierce), the activation status of Ras signaling can be determined as the amount of Ras-GTP co-purified with a GST-tagged Ras-binding domain of c-Raf. […]
smiles,measurement,setting,value
CC(C)(C(=O)NCC(F)(F)C(F)(F)F)C(=O)N[C@@H]1C(=O)Nc2ccccc2-c2ccccc21 [RO4929097],"survival benefit, in words","[1]; unirradiated, 20 days oral treatment",did not produce significant benefits
same,"survival benefit, in words","[1]; with 2 doses of 4 Gy local X-ray, 30 days oral treatment",some modest effects
same,mice free of tumor burden / sustained control of orthotopic GBM,"[1]; with radiation, ~day 80",1 out of 8
same,active Ras levels,Ras,decreased active Ras levels

# Source: patent US8853274B1, “Compositions and methods for targeting glioblastomas cells” (Vanderbilt University, priority 2011, dated 2014)
